# Data reported in patent publication US5554542A, “Immunoassay for isothiazolones” (Rohm and Haas Company, priority 1993, dated 1996).
# Tested on: antibodies in hybridoma culture supernatants (CF10, EH9, EC2, EC2 IB8)
# Experiment: CIEIA of hybridoma culture supernatants
# Assay type: binding, mouse
# Settings: for Inhibition of antibody binding to coating antigen: cell culture 89-147EH9, coating antigen 651-BSA; for Inhibitors (Absorbance): coating 651-BSA
# Protocol: The supernatants from wells with growing colonies of hybridomas were screened using CIEIA. Ninety-six well polystyrene EIA ([…]) plates were coated with 100 μl of 651 conjugated to BSA (651-BSA) for at least two hours at room temperature or 16 hours at 4° C. Unbound material was washed from the wells with five washes of PBS-T. The wells then received 50 μl of buffer alone (PBS-T) or inhibitors, either 651 or 573, each diluted to 2 ppm in buffer. The wells then received 50 μl of supernatant from each cell culture, so that each supernatant was reacted with either buffer, 651 or 573 (inhibitors). […] The wells were incubated for 30-60 minutes at room temperature. They were then washed five times with PBS-T to remove unbound material and each well then received 100 μl of a 1 μg/ml solution of biotinylated horse anti-mouse IgG (Vector Laboratories, Burlingame, Calif.), and the assay continued as described for the ELISA, supra.
# If the antibodies in a supernatant were reactive with one or both of the inhibitors in solution in the wells, the antibody molecules, or a percentage of the antibody molecules, would bind to the inhibitors, and would therefore form an antibody-inhibitor complex which would stay in solution and be removed from the plate during the washing step. In such a case, the binding of the antibody to the inhibitor would reduce the number of antibody molecules available to bind to the coating antigen, 651-BSA. Because fewer antibody molecules are attached to the 651-BSA, there is a reduction in the number of biotinylated horse anti-mouse IgG molecules bound, resulting in fewer molecules of avidin-peroxidase complex being bound, resulting in reduced hydrolysis of the substrate, leading ultimately to lower absorbances.
# It is possible to manipulate the CIEIA to achieve greater inhibition by varying the concentrations of coating antigen, antibodies and detection molecules (such as the horse anti-mouse IgG and the avidin-peroxidase complex). Such "optimization" of the CIEIA is used to obtain higher levels of sensitivity and allow the use of lower concentrations (i.e. higher dilutions) of the monoclonal antibodies.
# [1] = culture CF10, supernatant dilution 1:2, inhibitor 1 PPM, no inhibitor 0.485
# [2] = culture CF10, supernatant dilution 1:2.5, inhibitor 1 PPM, no inhibitor 0.121
# [3] = culture EC2, supernatant dilution 1:2, inhibitor 1 PPM, no inhibitor 0.847
# [4] = culture EC2, supernatant dilution 1:12, inhibitor 1 PPM, no inhibitor 0.917
# [5] = culture EC2 IB8 (a clone of 89147EC2), supernatant dilution 1:6, inhibitor 1 PPM, no inhibitor 0.169
# [6] = culture EH9, supernatant dilution 1:2, inhibitor 1 PPM, no inhibitor 0.170
# [7] = culture EH9, supernatant dilution 1:2.5, inhibitor 1 PPM, no inhibitor 0.386
Compound,Inhibition of antibody binding to coating antigen,Inhibitors (Absorbance) [1],Inhibitors (Absorbance) [2],Inhibitors (Absorbance) [3],Inhibitors (Absorbance) [4],Inhibitors (Absorbance) [5],Inhibitors (Absorbance) [6],Inhibitors (Absorbance) [7]
"Cn1sccc1=O [compound 573, 2-methyl-3-isothiazolone]",inhibitable,0.479,0.099,0.520,0.872,0.121,0.117,0.135
"Cn1sc(Cl)cc1=O [compound 651, 5-chloro-2-methyl-3-isothiazolone]",inhibitable,0.419,0.119,0.652,0.910,0.124,0.150,0.122
